Data as given in PubChem BioAssay (NCI).
“And” between values parts separate entries of the source, which are not always exact repeats. Identical values can stand only once.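 A five-concentration, 48-hour dose response in 96-well plates underlies each endpoint, interpolated linearly between surrounding concentrations. Abbreviation: GI50, concentration required for 50% inhibition of growth. The concentration for full growth arrest is given as TGI.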

What was measured:
Assay in all cases: DTP human tumour cell line panel, 48 h
NCI/ADR-RES ovarian = test system: NCI/ADR-RES ovarian
K-562 leukemia = test system: K-562 leukemia
UACC-257 melanoma = test system: UACC-257 melanoma
RXF 393 renal = test system: RXF 393 renal
SK-OV-3 ovarian = test system: SK-OV-3 ovarian
SR leukemia = test system: SR leukemia
HOP-62 NSCLC = test system: HOP-62 NSCLC
TK-10 renal = test system: TK-10 renal
PC-3 prostate = test system: PC-3 prostate
SF-295 CNS = test system: SF-295 CNS

Compound	GI50 (NCI/ADR-RES ovarian)	TGI (NCI/ADR-RES ovarian)	GI50 (K-562 leukemia) [µM]	TGI (K-562 leukemia) [µM]	GI50 (UACC-257 melanoma)	TGI (UACC-257 melanoma)	GI50 (RXF 393 renal)	TGI (RXF 393 renal)	GI50 (SK-OV-3 ovarian)	TGI (SK-OV-3 ovarian)	GI50 (SR leukemia)	TGI (SR leukemia)	GI50 (HOP-62 NSCLC)	TGI (HOP-62 NSCLC)	GI50 (TK-10 renal)	TGI (TK-10 renal)	GI50 (PC-3 prostate)	TGI (PC-3 prostate)	GI50 (SF-295 CNS)	TGI (SF-295 CNS)
O=C(c1ccccc1O)c1[nH]c(Cl)c(Cl)c1-n1c(C(=O)c2ccccc2O)cc(Cl)c1Cl	0.669 µM and 0.456 µM	12.9 µM and 11.2 µM	0.409	16.8	1.58 µM and 1.99 µM	5.88 µM and 9.95 µM	1.09 µM and 0.754 µM	9.12 µM and 6.72 µM	1.86 µM and 2.31 µM	7.11 µM and 13.1 µM	2.76 µM and 0.446 µM	15.2 µM and 15.1 µM	2.14 µM and 3.49 µM	6.49 µM and 17.2 µM	0.656 µM and 0.616 µM	10.9 µM and 12.4 µM	0.411 µM and 0.276 µM	9.21 µM and 2.37 µM	1.05 µM and 0.792 µM	4.16 µM and 3.38 µM
COc1cc2c(cc1O)C(c1cc(O)c(O)c(OC)c1)C(O)(C(=O)O)C(CO)C2O (configuration not stated)	–	> 100 µM	–	> 100	–	> 100 µM	–	> 100 µM	–	> 100 µM	–	> 100 µM	–	> 100 µM	–	> 100 µM	–	> 100 µM	–	> 100 µM
Nc1cc2nc3ccccc3oc-2cc1=O	9.16 µM	> 88.9 µM	2.05	> 26.9	2.35 µM	6.68 µM	5.07 µM	14.2 µM	19.7 µM	> 61.4 µM	9.93 µM	> 75.3 µM	2.94 µM	6.64 µM	14.3 µM	39.7 µM	16.7 µM	> 100 µM	1.44 µM	3.79 µM
CC1(C)N=C(N)N=C(N)N1c1ccc(Cl)c(Cl)c1	43 µM	> 100 µM	0.0636	> 100	> 41.6 µM	> 100 µM	29.1 µM	> 100 µM	0.83 µM	> 100 µM	31.3 µM	> 100 µM	0.533 µM	> 100 µM	–	> 100 µM	0.157 µM	> 100 µM	0.304 µM	–
Oc1c2c(c(O)c3ccccc13)C1(N=N2)c2ccccc2Oc2ccccc21	–	33.4 µM	–	> 100	–	19.1 µM	–	4.65 µM	–	31.4 µM	–	> 100 µM	–	38.5 µM	–	23 µM	–	28.5 µM	–	33.3 µM
NCCN1C(=O)c2ccccc2C1(O)c1ccc(Cl)cc1 (configuration not stated)	–	> 100 µM	–	39	–	31.8 µM	–	55.8 µM	–	81.1 µM	–	36.6 µM	–	89.8 µM	–	36.1 µM	–	50 µM	–	55.3 µM
FC(F)(F)c1[nH]ncc1-c1nc2ccc3[nH]ncc3c2c2c1CCCC2	2.49 µM	13.9 µM	2.71	60.5	2.67 µM	8.69 µM	1.13 µM	2.35 µM	1.79 µM	5.83 µM	0.356 µM	2.73 µM	1.17 µM	6.79 µM	1.24 µM	8.27 µM	2.08 µM	8.73 µM	1.69 µM	8.52 µM
CNC(=O)c1cc2c(Oc3ccc(NC(=S)NC(=O)Cc4ccccc4)cc3F)ccnc2cc1OC	7.01 µM	> 100 µM	0.502	> 100	9.5 µM	> 100 µM	2.02 µM	6.55 µM	5.24 µM	> 100 µM	5.78 µM	> 100 µM	22.6 µM	> 100 µM	5.99 µM	> 100 µM	16.7 µM	> 100 µM	0.196 µM	> 100 µM
Cc1ncc(-c2ccnc(Nc3ccc(S(C)(=O)=O)cc3)n2)n1C(C)C	2.46 µM	> 10 µM	1.59	> 10	1.94 µM	5.62 µM	0.211 µM	0.678 µM	4.16 µM	> 10 µM	0.222 µM	2.94 µM	1.36 µM	> 10 µM	1.37 µM	> 10 µM	1.3 µM	7.2 µM	1.67 µM	6.75 µM
CN(C)CCNc1nc2ccccc2c2occc12	51.8 µM	> 100 µM	25.9	98.9	28.9 µM	68.2 µM	31.6 µM	86.2 µM	85.1 µM	> 100 µM	21.3 µM	54.4 µM	96.2 µM	> 100 µM	60.5 µM	> 100 µM	36 µM	> 100 µM	60.2 µM	> 100 µM
CN(C)c1ccc(C(=C2C=CC(=[N+](C)C)C=C2)c2ccccc2Cl)cc1	1.89 µM	14.8 µM	0.244	3.79	0.528 µM	1.73 µM	0.405 µM	1.61 µM	0.314 µM	0.992 µM	0.235 µM	0.898 µM	0.292 µM	0.949 µM	0.345 µM	1.41 µM	0.242 µM	0.995 µM	0.0894 µM	0.401 µM
Nc1nc(-c2cc(-c3cccc4ccccc34)nc(N)n2)cc(-c2cccc3ccccc23)n1	–	> 100 µM	–	> 100	–	> 100 µM	–	> 100 µM	–	> 100 µM	–	> 100 µM	–	> 100 µM	–	> 100 µM	–	> 100 µM	–	> 100 µM
COc1cc(C2C3=C(COC3=O)Nc3cc4c(cc32)OCO4)cc2c1OCO2 (configuration not stated)	0.0785 µM	0.606 µM	0.034	> 100	–	> 100 µM	0.0304 µM	> 100 µM	0.0706 µM	–	0.0479 µM	> 100 µM	0.0762 µM	> 87.2 µM	0.295 µM	> 100 µM	0.0629 µM	> 100 µM	0.0299 µM	–
Cc1cc(S(N)(=O)=O)c(S/C(=N\Nc2ccc([N+](=O)[O-])cc2)c2ccc3ccccc3c2)cc1Cl	13.9 µM	41.9 µM	28	> 100	30.1 µM	78.3 µM	8.69 µM	54.8 µM	20.4 µM	55.8 µM	42.6 µM	> 100 µM	22.8 µM	68.5 µM	7.46 µM	31.7 µM	14.2 µM	27.4 µM	20 µM	66.2 µM
C[C@]12CC[C@@H]3c4ccc(O)cc4CC[C@H]3[C@@H]1CC[C@@H]2NS(=O)(=O)c1ccc2ccccc2c1	2.61 µM	8 µM	3.42	> 100	3.3 µM	17.6 µM	1.84 µM	4.33 µM	5.79 µM	36.4 µM	3.72 µM	95 µM	5.87 µM	20.2 µM	3.52 µM	12.8 µM	2.75 µM	17.3 µM	2.25 µM	6.03 µM
Cn1c(C(C)(C)OC(=O)Oc2ccccc2)cnc1[N+](=O)[O-]	–	> 100 µM	–	> 100	–	> 100 µM	–	> 100 µM	–	> 100 µM	–	51.7 µM	–	> 100 µM	–	> 100 µM	–	> 100 µM	–	> 100 µM
CSc1nc(N)c2c(n1)NC(c1ccccc1)C1CCc3ccccc3C1=N2 (configuration not stated)	5.58 µM	> 100 µM	4.12	> 100	> 100 µM	> 100 µM	4.71 µM	> 100 µM	> 100 µM	> 100 µM	1.65 µM	5.54 µM	> 100 µM	> 100 µM	> 100 µM	> 100 µM	2.56 µM	> 100 µM	25.6 µM	> 100 µM
COc1ccc2[nH]c(O)c(/C=c3/ccc4c(c3)N=C(c3ccc(F)cc3)N=4)c2c1	3.78 µM	24.4 µM	9.14	> 100	3.92 µM	15.3 µM	1.95 µM	4.06 µM	2.62 µM	6.06 µM	4.95 µM	> 100 µM	1.93 µM	3.91 µM	3.01 µM	7.12 µM	4.64 µM	88.6 µM	7.33 µM	> 100 µM
Nc1ncnc2nn(C3OC(CO)C(O)C3O)nc12 (configuration not stated)	–	> 86.8 µM	–	> 100	–	> 87.1 µM	–	> 23.1 µM	–	16.6 µM	–	16 µM	–	46.5 µM	–	> 35.4 µM	–	> 67.6 µM	–	> 89.3 µM
COc1ccc(Oc2cc(NCCC(F)(F)F)c3ncc(-c4ccc(C(=O)NC5CC5)c(C)c4)n3n2)c(F)c1F	0.198 µM	> 80.6 µM	10.2	> 100	9.26 µM	59.5 µM	0.425 µM	31.9 µM	0.399 µM	27.2 µM	0.224 µM	64.3 µM	2.02 µM	37 µM	4.61 µM	> 100 µM	2.16 µM	> 78.5 µM	0.638 µM	> 65.3 µM
COc1ccc2nccc(/C=C/c3ccnc4ccc(OC)cc34)c2c1	> 100 µM	> 100 µM	> 43	> 59.1	> 100 µM	> 100 µM	> 73.4 µM	> 100 µM	> 77 µM	> 100 µM	21.8 µM	> 53.7 µM	> 64.3 µM	> 100 µM	> 45.2 µM	> 63.4 µM	> 47.5 µM	> 79.9 µM	> 64.6 µM	> 100 µM
N=C(N)SCc1ccc([N+](=O)[O-])cc1[N+](=O)[O-]	23 µM	89 µM	3.42	21	4.44 µM	17 µM	1.38 µM	4.13 µM	20.8 µM	53.7 µM	3.09 µM	11.4 µM	33.9 µM	79.1 µM	5.9 µM	19.7 µM	13.4 µM	87.2 µM	31.3 µM	> 100 µM
CNCCCn1c2c(c3ccc(F)cc3c1=O)C(=O)c1cc(OC)cnc1-2	0.431 µM	9.51 µM	0.172	1.92	0.485 µM	1.9 µM	0.316 µM	1.38 µM	0.228 µM	0.674 µM	0.12 µM	1.13 µM	0.142 µM	0.42 µM	0.332 µM	1.79 µM	0.37 µM	8.1 µM	0.185 µM	0.78 µM
COc1ccc(C(=O)OC2C(OC3C(O)COC(O[C@H]4C[C@H]5[C@@H]6CC=C7C[C@@H](O)CC[C@]7(C)[C@H]6CC[C@]5(C)[C@H]4[C@H](C)C(=O)CCC(C)C)C3OC(C)=O)OCC(O)C2O)cc1 (some centres not stated)	7.49 µM	30 µM	–	–	< 0.003 µM	0.0072 µM	< 0.003 µM	< 0.003 µM	< 0.003 µM	0.191 µM	< 0.003 µM	0.682 µM	< 0.003 µM	0.592 µM	0.0148 µM	6.6 µM	< 0.003 µM	0.311 µM	< 0.003 µM	< 0.003 µM
COC(=O)/C(=C\c1c(-c2ccccc2)[nH]c2ccccc12)S(C)(=O)=O	3.28 µM	> 100 µM	–	–	11.2 µM	25.9 µM	7.23 µM	68.2 µM	12.1 µM	75.5 µM	8.08 µM	> 100 µM	10.7 µM	36.7 µM	7.71 µM	> 100 µM	4.16 µM	> 100 µM	3.13 µM	19.9 µM
CC12CCC(O)CC1=CCC1C2CCC2(C)C(c3cccnc3)=CCC12 (configuration not stated)	> 100 µM	> 100 µM	76.8	> 100	–	–	40.2 µM	> 100 µM	> 100 µM	> 100 µM	93.9 µM	> 100 µM	> 100 µM	> 100 µM	> 100 µM	> 100 µM	> 100 µM	> 100 µM	56 µM	> 100 µM
O=S(=O)(NCCO)c1cc[c]([Sb](=[O])([OH])[OH])cc1	> 100 µM	> 100 µM	> 100	> 100	> 100 µM	> 100 µM	> 100 µM	> 100 µM	–	–	> 100 µM	> 100 µM	> 100 µM	> 100 µM	> 100 µM	> 100 µM	> 100 µM	> 100 µM	> 100 µM	> 100 µM
